The conditions of data set [1]: numbers taken from the e-Pesticide Manual v 4.0; cited from earlier work.
Data set [2] is described as follows: Solubility of active ingredients in the amide solvents (solvent added until dissolved, stable 24 h). The protocol:
Various agriculturally active ingredients were dissolved in both N-methyl-N-(2-propylheptyl)-formamide and N-methyl-N-(n-decyl)-formamide in order to evaluate the solubility of the active ingredients in the amides.
This was done by adding the active ingredient (AI) to a beaker and thereafter adding the solvent until the entire AI had been dissolved. The solutions were continually stirred at a temperature of 23° C. during the experiments. When everything had been dissolved, the beakers were left without stirring for 24 h to see if the solution was stable (i.e. no crystallization).

The mark [3] stands for this setting: solvent N-methyl-N-(2-propylheptyl) formamide, 23° C.
Where [4] appears, read: solvent N-methyl-N-(n-decyl) formamide, 23° C.

Like-named read-outs stand apart in the source and are kept apart here.

Consider five molecules from patent US9169195B2, “Amides, use of amides as solvents for organic compounds, compositions and emulsions containing amides, and method for treating a plant” (AKZO NOBEL CHEMICALS INTERNATIONAL B.V., priority 2009, dated 2015).

With `Cc1c(COC(=O)[C@@H]2[C@H](/C=C(\Cl)C(F)(F)F)C2(C)C)cccc1-c1ccccc1` (racemic) [Bifenthrin], the “Solubility in Water” value in data set [1] was <0.0000001 g Al/100 g solvent. Moreover, the “Solubility in N-Methyl-N-(2-propylheptyl) formamide” value in data set [2] (setting [3]) was >50 g Al/100 g solvent. For the same molecule, the “Solubility in N-Methyl-N-(n-decyl) formamide” value in data set [2] (setting [4]) is reported as >50 g Al/100 g solvent.

As for `O=C(O)COc1ccc(Cl)cc1Cl` [2,4-D acid], in data set [1], the “Solubility in Water” value was 0.0311 g Al/100 g solvent. Further, the “Solubility in N-Methyl-N-(2-propylheptyl) formamide” value in data set [2] (setting [3]) came to 41 g Al/100 g solvent. Further, in data set [2] (setting [4]), the “Solubility in N-Methyl-N-(n-decyl) formamide” value is listed as >50 g Al/100 g solvent.

Take `Cc1ccc(/N=C/N(C)/C=N/c2ccc(C)cc2C)c(C)c1` [Amitraz]: the “Solubility in Water” value in data set [1] is recorded as <0.00001 g Al/100 g solvent. Also, in data set [2] (setting [3]), the “Solubility in N-Methyl-N-(2-propylheptyl) formamide” value is recorded as >50 g Al/100 g solvent. In addition, the “Solubility in N-Methyl-N-(n-decyl) formamide” value in data set [2] (setting [4]) was >50 g Al/100 g solvent.

Turning to `CC(C)(C)C(O)(CCc1ccc(Cl)cc1)Cn1cncn1` (stereo not shown) [Tebuconazole], the “Solubility in N-Methyl-N-(n-decyl) formamide” value in data set [2] stood at 48 g Al/100 g solvent. Besides, the “Solubility in N-Methyl-N-(2-propylheptyl) formamide” value in data set [2] (setting [3]) worked out at 48 g Al/100 g solvent.

Turning to `CON=C(C(=O)OC)c1ccccc1CON=C(C)c1cccc(C(F)(F)F)c1` [Trifloxystrobin], in data set [2], the “Solubility in N-Methyl-N-(2-propylheptyl) formamide” value was found to be 23 g Al/100 g solvent and the “Solubility in N-Methyl-N-(n-decyl) formamide” value was 23 g Al/100 g solvent.
